Converted amounts (≈) assume the structure as drawn.
How the values were obtained:
[1] = Thermodynamic solubility in FaSSIF pH 6.5 buffer; assay type: physicochemical; settings: thermodynamic from solid, FaSSIF pH 6.5, 25° C., Method 2 (LCMS)
From the text: BET protein inhibitors with a high aqueous solubility are in some embodiments promising oral drug candidates. Some of the exemplary compounds of the current disclosure have high solubility (measured in μM) in Fasted State Simulated Intestinal Fluid (FaSSIF) pH 6.5 buffer. The experimental methods and results (Table 4) are provided hereinafter.
Thermodynamic Solubility Assay, Method 1
FaSSIF v2 buffer is freshly prepared prior to use according to the suppliers' instructions and the pH adjusted to 6.5 using 1 M NaOH or 1 M HCl as required. From 1 mM working solution of test compound in DMSO, the λmax of the test compound is determined by scanning from 200 nm to 700 nm, in 1 nm steps with an EPOCH UV/Visible spectrophotometer (Biotek Instruments Inc.). A 12-point standard curve of compound concentration versus absorption at λmax is generated via two-fold serial dilutions of the 1 mM working solution with DMSO. Approximately 1 mg of test compound is accurately weighed into an Eppendorf tube and the appropriate volume of FaSSIF buffer is added to make a nominal concentration of 1 mg/mL. […]
FaSSIF buffer was prepared according to the suppliers' instructions and the pH adjusted to 6.5 using 1 M NaOH or 1 M HCl as required. […] The concentration of the test compound in the filtrate was determined by LCMS analysis with reference to the internal standards to determine the solubility in the buffer.

BRD4 BD2 = target: T1, BRD4 BD2 (Homo sapiens, UniProt O60885); test: NanoBRET bromodomain assay, NanoLuc-BRD4-BD2 fusion vector in HEK293 cells; assay type: cell-based; settings: NanoBRET, HEK293 cells, top concentration 10 μM
T1 construct: HEK293 cells were transfected using NanoLuc-BRD4-BD1 or NanoLuc-BRD4-BD2 fusion vectors; host or cells: HEK293
From the text: (§1) Bromodomain Assay Procedure

[2] = Plasma stability assay, rat plasma; assay type: in vitro ADME; settings: 37° C., Method 2 (10 μM)
Description: Exemplary compounds of the disclosure are stable upon incubation in mouse plasma. Stability is expressed as a % remaining after 120 minutes. The experimental methods and results (Table 2) are provided hereinafter.
Plasma Stability Assay, Method 1
From stock solution of compound in 10 mM DMSO, a working solution of 1 mM is prepared by diluting the compound in DMSO. To 398 μL of plasma pre-warmed at 37° C. for 15 minutes), 2 μL of working solution of compound is added, resulting in a final concentration of 5 μM (0.5% DMSO) for the compound. The sample is then incubated at 37° C. Aliquot is withdrawn at specified time-points (0, 15, 30, 60 and 120 mins). The reaction is stopped by addition of 450 μL cold acetonitrile containing internal standard (IS). […] Aliquots of the supernatant is analysed using LC-MS/MS. The percent remaining of the compound at each time point is calculated with respect to the control sample (0 min time-point).
Plasma Stability Assay, Method 2
A working solution of compound (500 μM) is prepared in DMSO (100%). To 735 μL of plasma, 15 μL of working solution of compound is added—resulting in a final concentration of 10 μM (2% DMSO) for the compound. The sample is then incubated at 37° C. Aliquot is withdrawn at time-points—0, 15, 30, 60, 90 and 120 mins. The reaction is stopped by using chilled acetonitrile containing internal standard (IS). The samples are centrifuged and the supernatants analyzed using LC-MS/MS. The percent remaining of the compound at each time point is calculated with respect to the control sample (0 min time-point).

BRD4 BD1 = target: T2, BRD4 BD1 (Homo sapiens, UniProt O60885); test: NanoBRET bromodomain assay, NanoLuc-BRD4-BD1 fusion vector in HEK293 cells; assay type: cell-based; settings: top concentration 10 μM
T2 construct: HEK293 cells were transfected using NanoLuc-BRD4-BD1 or NanoLuc-BRD4-BD2 fusion vectors; host or cells: HEK293
From the text: as §1

solubility thermodynamic [1]: 1230 µM (≈ 516 µg/mL) | IC50 (BRD4 BD2): 50 to 200 nM | Plasma Stability (% remaining at 120 minutes) Rat [2]: 89% | IC50 (BRD4 BD1): ≥ 10000 nM
Compound: CNC(=O)c1[nH]c(C(=O)NC2CCC(O)CC2)cc1OC(C)c1ccc(Cl)cc1 (single isomer, unassigned) [Example 29, 3-(1-(4-chlorophenyl)ethoxy)-N^5-(4-hydroxycyclohexyl)-N^2-methyl-1H-pyrrole-2,5-dicarboxamide]

Source: patent US20260000642A1 (Tay Therapeutics Limited, priority 2022, published 2026)
